Results reported in patent publication US9326451B1, “Seed pillow for overcoming the limiting factors controlling rangeland reseeding success” (The United States of America, as represented by the …, priority 2012, dated 2016).

Columns and labels:
downy brome = test: Example 6: downy brome control by imazapic, grow-room pot study; type: in vivo
Experimental: (§1) Soil was obtained from a Wyoming big sagebrush (Artemisia tridentata Nutt. ssp. wyomingensis [Beetle & A. Young] S. L. Welsh)-steppe community type, located at the Northern Great Basin Experimental Range, 16-km southwest of Riley, Oreg. (43° 32′N, 118° 9′ W). Soil on the site has a silt-loam texture and is classified as a fine-loamy, mixed, frigid Aridic Haploxeroll (Soil Survey Staff 2012). Soil was excavated from a maximum depth of 25-cm, with the top 2-cm of soil and litter discarded to remove existing seeds. Excavated soil was used to fill square 14-cm wide by 14-cm deep growing pots that were placed in a grow-room at the Eastern Oregon Agriculture Research Center, located in Burns, Oreg., USA.
Species used in the study included the native bunchgrass ‘Anatone’ bluebunch wheatgrass and the non-native annual weed downy brome. Bluebunch wheatgrass was chosen because it is often a major component of native plant communities in the sage-steppe ecosystem of western North America, is commonly used in rangeland seeding efforts (see e.g., Ogle et al. 2010 Plant guide for bluebunch wheatgrass (Pseudoroegneria spicata). USDA-Natural Resources Conservation Service. Idaho and Washington Plant Materials Program. 5 p). Like many grasses used for restoration, bluebunch wheatgrass is injured by imazapic applied at rates required for downy brome control (see e.g., Shinn and Thill 2004 Weed Technology 18:60-65). Germination potential of bluebunch wheatgrass and downy brome was 92% and 98%, respectively (as tested on blue blotter paper in 130-mm diameter petri dishes, with 25 seeds·dish−1 replicated four times per species).
Bluebunch wheatgrass seeds were untreated, coated with activated carbon, or incorporated into HPPs containing activated carbon. Pots with the sown seeds were sprayed with 0, 70, 105, 140, or 210 g acid equivalent (ae)·ha−1 (0, 4, 6, 8, or 12 oz·acre−1) of the pre-emergent herbicide imazapic (Panoramic 2SL, Alligare LLC, Opelika, Ala.), (3 seed treatments×5 herbicide application rates=15 experimental treatments). The study was arranged in a randomized complete block design with 8 replicates per treatment.
Each pot was seeded with 20 PLS (1000 PLS·m−2) of downy brome, and 10 PLS (500 PLS·m−2) of bluebunch wheatgrass. Two pods were added to each pot designated to receive HPPs. […] Response variables recorded at the conclusion of the study included: 1) plant density, 2) shoot height, and 3) oven dried (65° C. for 72-hrs) aboveground biomass.
Bluebunch wheatgrass and downy brome response data were analyzed separately in SAS (Version 9.3; SAS Institute, Cary, N.C.) using a two-way randomized complete block analysis of variance (ANOVA; Proc Mixed). […] Significance was determined at P<0.05.

[1] = test system: 'Anatone' bluebunch wheatgrass; settings: in vivo
Experimental: as §1
Species used in the study included the native bunchgrass ‘Anatone’ bluebunch wheatgrass and the non-native annual weed downy brome. Bluebunch wheatgrass was chosen because it is often a major component of native plant communities in the sage-steppe ecosystem of western North America, is commonly used in rangeland seeding efforts (see e.g., Ogle et al. 2010 Plant guide for bluebunch wheatgrass (Pseudoroegneria spicata). USDA-Natural Resources Conservation Service. Idaho and Washington Plant Materials Program. 5 p). […]

bluebunch wheatgrass [2] = test system: bluebunch wheatgrass; design: species or system Pseudoroegneria spicata; settings: in vivo
Text: (§2) The following example illustrates the ability of seed pillows to protect seeds from soil-active herbicide and use of beneficial biostimulants and super-absorbent polymer. In the study, treatments included untreated seed and four seed pillow treatments, including seed incorporated into a pillow containing 1) activated carbon, 2) activated carbon plus biostimulants, 3) activated carbon plus super-absorbent polymer, and 4) activated carbon plus biostimulants and super-absorbent polymer. Pellets were extruded and cut into 3 mm thick hexagon pellets that were 13 mm in diameter, with each pillow containing eight pure live seeds.
(§3) Bluebunch wheatgrass and cheatgrass were sown in 14×14 cm pots at 500 pure live seeds m-2, and 1000 seeds m-2, respectively. After planting, half of the pots in the study were sprayed with 8 oz/acre of the pre-emergent herbicide imazapic, or left unsprayed. The study was arranged in a randomized block design with 8 replicates per treatment.

bluebunch wheatgrass [3] = test system: bluebunch wheatgrass; design: species or system Pseudoroegneria spicata; settings: in vivo; remark: listed apart in the source
Text: (§4) In this study, bluebunch wheatgrass was either left untreated, coated with activated carbon, or incorporated into a seed-pillow containing activated carbon. Source of activated carbon used in the study was Nuchar® powdered activated carbon (MWV, Richmond, Va.). Seeds were coated with activated carbon according to U.S. Patent application 2010/0093535. Seed pillows were formed by mixing dough containing by weight 22% activated carbon, 18.6% diatomaceous earth, 57.9% SELVOL-205 solution with 1% solids, and 1.2% seed. Pellets were extruded and cut into 3 mm thick hexagon pellets that were 13 mm in diameter, with each pillow containing eight pure live seeds.
(§5) Bluebunch wheatgrass and cheatgrass were sown in 14×14 cm pots at 500 pure live seeds m-2, and 1000 seeds m-2, respectively. After planting, pots were sprayed with 4, 6, 8, or 12 oz/acre of the pre-emergent herbicide imazapic, or left unsprayed. The study was arranged in a randomized block design with 8 replicates per treatment.

cheatgrass = test: Example 5: cheatgrass control by imazapic, pot study; type: in vivo, Bromus tectorum; settings: 8 oz/acre, pre-emergent spray after planting
Text: as §2, §3

[4] = test system: cheatgrass (Bromus tectorum L.); test: Example 4: cheatgrass control by imazapic, pot study; type: in vivo
Text: as §4, §5

[5] = averaged across the study, 47 days

Cc1cnc(C2=NC(=O)C(C)(C(C)C)N2)c(C(=O)O)c1 (centres unmarked) [imazapic]
control of downy brome (downy brome; all application rates (70, 105, 140, 210 g ae·ha−1)): effectively controlled
reduction of downy brome biomass (downy brome; [5]): 140.2 fold
reduction of downy brome density (downy brome; [5]): 6.6 fold
reduction of downy brome height (downy brome; [5]): 8.0 fold
effect on untreated bluebunch wheatgrass [1]: impaired
effect on non-treated bluebunch wheatgrass seed (bluebunch wheatgrass [2]): effectively controlled
bluebunch wheatgrass growth, untreated seed (FIG. 3B) (bluebunch wheatgrass [3]): growth was arrested
control of cheatgrass growth (cheatgrass): effectively controlled
control of cheatgrass growth ([4]; all application rates (4, 6, 8, 12 oz/acre)): effectively controlled
cheatgrass growth (FIG. 3C) ([4]; imazapic at 8 oz/acre, bluebunch seed in activated carbon pillow): suppressed
cheatgrass growth (FIG. 3B) ([4]; soil treated at 10 oz/acre): growth was arrested
